Laboratory results from patent US20240383852A1, “ANTI-VIRAL COMPOUNDS” (INFEX Therapeutics Limited, priority 2021, published 2024).

Experiments:
SARS-CoV-2 PLpro = biological target: T1, SARS-CoV-2 PLpro (Severe acute respiratory syndrome coronavirus 2, UniProt P0DTD1); assay: biochemical; settings: 60 nM papain-like protease, 50 μM Z-RLRGG-AMC, pH 7.5, 37° C.; read-out: SARS-CoV-2 PLpro IC50
T1 construct: containing 60 nM papain-like protease

[1] = system: human Hep G2 cells (ATCC HB-8065); assay: Cytotoxicity in Hep G2 cells (CellTiter-Glo); type: cell-based; settings: Hep G2 cells, 100 μM test article, 24-hour exposure

Row | Compound | IC50 (SARS-CoV-2 PLpro) | % Cell Viability [1]
1 | COc1ccc([C@@H](C)NC(=O)c2cc(N3CCN(C)CC3)ccc2C)cc1-c1cnn(C(F)F)c1 [Example 208, N-[(1R)-1-[3-[1-(Difluoromethyl)pyrazol-4-yl]-4-methoxy-phenyl]ethyl]-2-methyl-5-(4-methylpiperazin-1-yl)benzamide] | < 2000 nM | 87.8%
2 | COc1ccc([C@@H](C)NC(=O)c2cc(N3CCN(C)CC3)ccc2C)cc1-c1ccc(=O)n(C)c1 [Example 210, N-[(1R)-1-[4-Methoxy-3-(1-methyl-6-oxo-3-pyridyl)phenyl]ethyl]-2-methyl-5-(4-methylpiperazin-1-yl)benzamide] | < 5000 nM | 64.0%
3 | COc1ccc([C@@H](C)NC(=O)c2cc(N3CCN(C)CC3)ccc2C)cc1-c1ccncc1 [Example 211, N-[(1R)-1-[4-Methoxy-3-(4-pyridyl)phenyl]ethyl]-2-methyl-5-(4-methylpiperazin-1-yl)benzamide] | < 2000 nM | 86.0%
4 | CCn1cc(-c2cc([C@@H](C)NC(=O)c3cc(N4CCN(C)CC4)ccc3C)ccc2OC)cn1 [Example 213, N-[(1R)-1-[3-(1-Ethylpyrazol-4-yl)-4-methoxy-phenyl]ethyl]-2-methyl-5-(4-methylpiperazin-1-yl)benzamide] | < 2000 nM | 67.2%
5 | COc1ccc([C@@H](C)NC(=O)c2cc(N3CCN(C)CC3)ccc2C)cc1-c1cn[nH]c1 [Example 214, N-[(1R)-1-[4-Methoxy-3-(1H-pyrazol-4-yl)phenyl]ethyl]-2-methyl-5-(4-methylpiperazin-1-yl)benzamide] | < 2000 nM | 101.2%
6 | COc1cc(OC)c([C@@H](C)NC(=O)c2cc(N3CCN(C)CC3)ccc2C)cc1-c1ccccc1 [Example 216, N-[(1R)-1-(2,4-Dimethoxy-5-phenyl-phenyl)ethyl]-2-methyl-5-(4-methylpiperazin-1-yl)benzamide] | < 2000 nM | 0.6%
7 | Cc1ccc(N2CCN(C)CC2)cc1C(=O)N[C@H](C)c1ccc(F)c(-c2ccccc2)c1 [Example 218, N-[(1R)-1-(4-Fluoro-3-phenyl-phenyl)ethyl]-2-methyl-5-(4-methylpiperazin-1-yl)benzamide] | < 2000 nM | 1.5%
8 | Cc1ccc(N2CCN(C)CC2)cc1C(=O)N[C@H](C)c1ccc(OC(F)(F)F)c(-c2cnn(C)c2)c1 [Example 222, 2-Methyl-5-(4-methylpiperazin-1-yl)-N-[(1R)-1-[3-(1-methylpyrazol-4-yl)-4-(trifluoromethoxy)phenyl]ethyl]benzamide] | < 2000 nM | 7.4%
9 | Cc1ccc(N2CCN(C)CC2)cc1C(=O)N[C@H](C)c1cncc(-c2ccccc2)c1 [Example 223, 2-Methyl-5-(4-methylpiperazin-1-yl)-N-[(1R)-1-(5-phenyl-3-pyridyl)ethyl]benzamide] | < 2000 nM | 59.8%
10 | Cc1ccc(N2CCN(C)CC2)cc1C(=O)N[C@H](C)c1cncc(-c2cnn(C)c2)c1 [Example 224, 2-Methyl-5-(4-methylpiperazin-1-yl)-N-[(1R)-1-[5-(1-methylpyrazol-4-yl)-3-pyridyl]ethyl]benzamide] | < 5000 nM | 105.0%
11 | Cc1ccc(N2CCN(C)CC2)cc1C(=O)N[C@H](C)c1cncc(-c2cn(C)nc2C)c1 [Example 225, N-[(1R)-1-[5-(1,3-Dimethylpyrazol-4-yl)-3-pyridyl]ethyl]-2-methyl-5-(4-methylpiperazin-1-yl)benzamide] | < 10000 nM | 95.8%
12 | COc1c(-c2cnn(C)c2)cccc1[C@@H](C)NC(=O)c1cc(N2CCN(C)CC2)ccc1C [Example 226, N-[(1R)-1-[2-Methoxy-3-(1-methylpyrazol-4-yl)phenyl]ethyl]-2-methyl-5-(4-methylpiperazin-1-yl)benzamide] | < 10000 nM | 91.4%
13 | Cc1ccc(N2CCN(C)CC2)cc1C(=O)N[C@H](C)c1ccc(C)c(-c2cnn(C)c2)c1 [Example 228, 2-Methyl-N-[(1R)-1-[4-methyl-3-(1-methylpyrazol-4-yl)phenyl]ethyl]-5-(4-methylpiperazin-1-yl)benzamide] | < 2000 nM | 69.9%
14 | Cc1ccc(N2CCN(C)CC2)cc1C(=O)N[C@H](C)c1cc(F)cc(-c2cnn(C)c2)c1 [Example 229, N-[(1R)-1-[3-Fluoro-5-(1-methylpyrazol-4-yl)phenyl]ethyl]-2-methyl-5-(4-methylpiperazin-1-yl)benzamide] | < 2000 nM | 66.7%
15 | Cc1ccc(N2CCN(C)CC2)cc1C(=O)N[C@H](C)c1cc(-c2ccccc2)cs1 [Example 231, 2-Methyl-5-(4-methylpiperazin-1-yl)-N-[(1R)-1-(4-phenyl-2-thienyl)ethyl]benzamide] | < 2000 nM | 1.6%
16 | Cc1ccc(N2CCN(C)CC2)cc1C(=O)N[C@H](C)c1cc(-c2cnn(C)c2)cs1 [Example 232, 2-Methyl-5-(4-methylpiperazin-1-yl)-N-[(1R)-1-[4-(1-methylpyrazol-4-yl)-2-thienyl]ethyl]benzamide] | < 5000 nM | 75.2%
17 | COc1cc(-c2ccccc2)cc([C@@H](C)NC(=O)c2cc(N3CCN(C)CC3)ccc2C)c1 [Example 234, N-[(1R)-1-(3-Methoxy-5-phenyl-phenyl)ethyl]-2-methyl-5-(4-methylpiperazin-1-yl)benzamide] | < 2000 nM | 0.9%
18 | COc1ccc([C@@H](C)NC(=O)c2cc(N3CCN(C)CC3)ccc2C)cc1-c1nnc(C)s1 [Example 236, N-[(1R)-1-[4-Methoxy-3-(5-methyl-1,3,4-thiadiazol-2-yl)phenyl]ethyl]-2-methyl-5-(4-methylpiperazin-1-yl)benzamide] | < 2000 nM | 79.5%
19 | COc1ccc([C@@H](C)NC(=O)c2cc(N3CCN(C)CC3)ccc2C)cc1C1CCNCC1 [Example 237, N-[(1R)-1-[4-Methoxy-3-(4-piperidyl)phenyl]ethyl]-2-methyl-5-(4-methylpiperazin-1-yl)benzamide] | < 5000 nM | 87.9%
20 | COc1ccc([C@@H](C)NC(=O)c2cc(N3CCN(C)CC3)ccc2C)cc1C1CCN(CCC(=O)O)CC1 [Example 238, 3-[4-[2-Methoxy-5-[(1R)-1-[[2-methyl-5-(4-methylpiperazin-1-yl)benzoyl]amino]ethyl]phenyl]-1-piperidyl]propanoic Acid] | < 10000 nM | 119.7%
21 | COc1ccc([C@@H](C)NC(=O)c2cc(N3CC4CN(C)CC4C3)ccc2C)cc1-c1cnn(C)c1 (stereo partly drawn) [Example 240, N-[(1R)-1-[4-Methoxy-3-(1-methylpyrazol-4-yl)phenyl]ethyl]-2-methyl-5-(2-methyl-1,3,3a,4,6,6a-hexahydropyrrolo[3,4-c]pyrrol-5-yl)benzamide] | < 2000 nM | 64.3%
22 | COc1ccc([C@@H](C)NC(=O)c2cc(N3CCNC4(CC4)C3)ccc2C)cc1-c1cnn(C)c1 [Example 241, 5-(4,7-Diazaspiro[2.5]octan-7-yl)-N-[(1R)-1-[4-methoxy-3-(1-methylpyrazol-4-yl)phenyl]ethyl]-2-methyl-benzamide] | < 5000 nM | 84.2%
